Drawing on ChEMBL document CHEMBL1147298, “An antitumor principle from Suillus granulatus” (1989), this text covers IC50 and T/C for two compounds.

Type in all cases: functional
In test [1] the test system is KB. Description: Cytotoxicity against human KB cells. Particulars: read-out: ID50 (the source's name).
Test [2] relates to P388. Description: In vivo antitumor activity against mouse P388 cells at 10 mg/kg, ip administered on 1,5 and 9 days relative to control. Particulars: route intraperitoneal.
Test [3] deals with P388. Description: In vivo antitumor activity against mouse P388 cells at 5 mg/kg, ip administered on 1,5 and 9 days relative to control. The settings on record: route intraperitoneal.
For test [4], the system named is P388. Description: Cytotoxicity against mouse P388 cells. Particulars: read-out: ID50 (the source's name).
Test [5] is described as follows: Cytotoxicity against human NSCLC-N6 cells. Particulars: read-out: ID50 (the source's name).

SMILES strings stand for the structures. Values after ≈ are worked out from the molar mass of the structure shown.

On to `CC(=O)Oc1ccc(OC(C)=O)c(OC(C)=O)c1C/C=C(\C)CC/C=C(\C)CC/C=C(\C)CCC=C(C)C`, for which, in test [1], the IC50 amounted to 1.8 µg/mL (≈ 3.43 µM).

Regarding `CC(=O)Oc1ccc(O)c(O)c1C/C=C(\C)CC/C=C(\C)CC/C=C(\C)CCC=C(C)C` [TETRAPRENYLPHENOLSUILLIN], the values for the T/C in test [2] and in test [3] were 160% and 151%, respectively. The IC50 in test [4] turned out to be 0.85 µg/mL (≈ 1.93 µM); in test [5], 1.02 µg/mL (≈ 2.31 µM); in test [1], 0.69 µg/mL (≈ 1.57 µM).

A word on the T/C: it is the ratio of treated to control.
